Test results from patent publication US12194046B2 (priority 2021, dated 2025).

Assays:
human hepatocytes = system: human hepatocytes
Method: Cryopreserved human hepatocytes were thawed and suspended into 50 ml of InVitro GRO HT-medium. The cells were centrifuged (50 g, 5 min) and resuspended into InVitro GRO KHB-medium (protein free). The cell density and viability were determined by trypan blue exclusion method.
Instrumentation: Waters Acquity UPLC+Waters TQ-S triple quadrupole MS; Column: Phenomenex Kinetex Biphenyl (2.1×100 mm, 1.8 μm) column with guard filter; Software: MassLynx 4.2.
The samples were analysed at 0, 30, 60, 90, and 120 minutes (with and without hepatocytes) by LC/MS/MS to monitor substrate depletion and formation of metabolites theophylline, theobromine and paraxanthine.

clinical = conditions: both, human, in vivo, po
[1] = Pharmacokinetic study: plasma and brain concentrations after a single oral (gavage) dose in rats; assay type: in vivo, Sprague-Dawley rats; conditions: oral gavage 2 mg/kg
Excerpt: Serial blood samples were collected from three animals per group per timepoint prior to dosing and at 0.25, 0.5, 1, 2, 3 4, 6, 8, 10, 12, and 14-hours post dose. No more than three blood samples were collected from individual animals with the last sample being a terminal blood draw. Terminal brain samples were collected from three animals per group at 1, 4, 8, and 14-hours post dose. Blood samples were collected into tubes containing sodium heparin, and then processed for plasma and stored frozen until bioanalysis. Brain samples were collected following the terminal blood collection, rinsed with saline, and stored frozen until bioanalysis.
Non-compartmental pharmacokinetic parameter estimates were calculated from the mean plasma concentration-time data.
Animals were fasted overnight prior to dose administration. Water was provided ad libitum. Food was returned after the collection of the 4-hour samples.
Prior to dosing, the body weight of each animal was recorded. Doses (rounded to the nearest 0.001 mL) were calculated based on the pretreatment body weight (kg) and a dose volume of 10 mL/kg. […] Dosing syringes were weighed immediately prior to and immediately after dosing each animal, and the quantity of formulation administered to each animal was determined from the difference in syringe weights.
Immediately after the 1, 4, 8 and 14-hour blood collections, three animals/group were euthanized and the brain was dissected out of each rat. […] Brain weights were calculated for each sample. […]
The concentration-time data were analyzed to fit an extra-vascular (oral gavage) dosing plasma analysis model (200) using the software WinNonlin Phoenix version 6.3 (Pharsight).
Areas-under-the-plasma concentration-time curves (AUC) were estimated using the linear trapezoidal rule. […] Apparent T1/2 was calculated using the slope of the log-linear terminal phase of the concentration-time curve, defined by a minimum of three plasma concentration-time points. Half-lives are reported if the correlation for the regression line, as measured by r squared, is ≥0.9, when rounded.

SMILES	formation of metabolite theobromine (human hepatocytes)	substrate depletion (disappearance) (human hepatocytes)	half-life (clinical; 50 mg) [h]	AUC(0-t) (clinical; 52.3 mg) [µM·h]	Cmax (clinical; 52.3 mg) [µM]	MRT (clinical; 52.3 mg) [h]	half-life (clinical; 250 mg) [h]	AUC(0-t) (clinical; 261.7 mg) [µM·h]	Cmax (clinical; 261.7 mg) [µM]	MRT (clinical; 261.7 mg) [h]	Cmax, corr (molecular weight corrected) ([1]; rat plasma, caffeine values multiplied by 0.956) [ng/mL]	total brain exposure (AUClast,corr) higher than caffeine ([1]; rat brain, molecular weight corrected)	total systemic exposure (AUCinf) higher than caffeine ([1]; rat plasma, molecular weight corrected)
Cn1c(=O)c2c(ncn2C)n(C)c1=O [caffeine, reference compound]	not detected	No clear disappearance	5.41	47.2	5.32	7.3	4.25	206	25.1	4.3	2486		
[2H]C([2H])([2H])n1c(=O)c2c(ncn2C([2H])([2H])[2H])n(C([2H])([2H])[2H])c1=O [d9-caffeine, 1,3,7-tri-trideuteromethylxanthine]	not detected	No clear disappearance	32.2	192	6.62	19.7	25.6	972	36.5	18.9		approximately 52%	approximately 77%
